Measured values as given in ChEMBL document CHEMBL5465560, “Selectivity Literature for EUbOPEN Chemogenomic Library” (2024).

Key:
[1] = biological target: Protein kinase C delta type (Homo sapiens) (UniProt Q05655); test: Selectivity interaction (KinomeScan (DiscoverX)) EUB0000229b PRKCD; settings: at 10 µM
[2] = biological target: Muscarinic acetylcholine receptor M3 (Homo sapiens, UniProt P20309); test: Selectivity interaction (GPCR panel (PDSP screen)) EUB0001079a CHRM3; settings: at 10 µM
[3] = biological target: T1, Serine/threonine-protein kinase haspin (Homo sapiens) (UniProt Q8TF76); test: Selectivity interaction (KinomeScan (DiscoverX)) EUB0001079a GSG2; settings: at 1 µM
T1 sequence (whole entry): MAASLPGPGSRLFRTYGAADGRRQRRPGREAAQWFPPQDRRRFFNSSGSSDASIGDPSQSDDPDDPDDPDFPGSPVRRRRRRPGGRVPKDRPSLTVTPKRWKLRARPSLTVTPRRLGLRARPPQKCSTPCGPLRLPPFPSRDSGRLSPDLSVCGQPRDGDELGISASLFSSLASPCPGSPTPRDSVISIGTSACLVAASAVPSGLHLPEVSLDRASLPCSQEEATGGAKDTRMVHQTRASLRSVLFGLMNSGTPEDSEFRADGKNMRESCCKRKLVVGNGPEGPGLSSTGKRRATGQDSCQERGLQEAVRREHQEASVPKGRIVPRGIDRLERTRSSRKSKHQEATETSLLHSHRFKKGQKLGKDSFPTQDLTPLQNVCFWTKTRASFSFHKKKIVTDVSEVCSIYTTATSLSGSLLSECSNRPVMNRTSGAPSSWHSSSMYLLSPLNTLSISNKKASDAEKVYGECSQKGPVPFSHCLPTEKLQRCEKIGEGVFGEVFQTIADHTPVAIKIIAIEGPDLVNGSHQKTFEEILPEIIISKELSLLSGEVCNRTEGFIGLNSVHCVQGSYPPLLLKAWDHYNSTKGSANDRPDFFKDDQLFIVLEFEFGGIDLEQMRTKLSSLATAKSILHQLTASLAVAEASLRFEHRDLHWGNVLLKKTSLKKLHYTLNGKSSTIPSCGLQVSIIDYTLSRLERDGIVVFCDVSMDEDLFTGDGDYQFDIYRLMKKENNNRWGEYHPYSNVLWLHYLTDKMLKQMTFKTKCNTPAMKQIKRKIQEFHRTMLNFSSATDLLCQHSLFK

[4] = biological target: T2, Cytoplasmic tyrosine-protein kinase BMX (Homo sapiens) (UniProt P51813); settings: at 10 µM
T2 sequence (whole entry): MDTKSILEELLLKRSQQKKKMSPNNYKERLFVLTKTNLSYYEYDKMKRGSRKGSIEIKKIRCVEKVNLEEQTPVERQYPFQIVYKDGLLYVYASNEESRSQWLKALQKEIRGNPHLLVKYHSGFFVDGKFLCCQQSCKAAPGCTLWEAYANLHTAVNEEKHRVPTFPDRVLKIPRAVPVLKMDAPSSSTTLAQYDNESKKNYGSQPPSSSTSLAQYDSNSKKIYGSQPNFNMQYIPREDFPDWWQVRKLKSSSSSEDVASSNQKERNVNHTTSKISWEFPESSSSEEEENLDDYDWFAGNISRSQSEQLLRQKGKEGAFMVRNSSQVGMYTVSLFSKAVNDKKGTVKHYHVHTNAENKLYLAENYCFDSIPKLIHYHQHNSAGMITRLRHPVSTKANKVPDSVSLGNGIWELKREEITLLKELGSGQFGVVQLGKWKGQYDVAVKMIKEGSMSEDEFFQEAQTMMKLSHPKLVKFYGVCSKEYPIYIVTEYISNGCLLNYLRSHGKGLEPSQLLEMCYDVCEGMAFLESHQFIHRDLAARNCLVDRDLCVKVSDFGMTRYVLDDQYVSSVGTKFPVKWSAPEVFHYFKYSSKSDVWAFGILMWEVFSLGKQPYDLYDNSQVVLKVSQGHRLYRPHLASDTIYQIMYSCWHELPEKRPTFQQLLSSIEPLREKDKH

[5] = biological target: T3, Tyrosine-protein kinase Mer (Homo sapiens) (UniProt Q12866); test: Selectivity interaction (SelectScreen profiling (Invitrogen)) EUB0000607a MERTK; settings: at 2 µM
T3 sequence (whole entry): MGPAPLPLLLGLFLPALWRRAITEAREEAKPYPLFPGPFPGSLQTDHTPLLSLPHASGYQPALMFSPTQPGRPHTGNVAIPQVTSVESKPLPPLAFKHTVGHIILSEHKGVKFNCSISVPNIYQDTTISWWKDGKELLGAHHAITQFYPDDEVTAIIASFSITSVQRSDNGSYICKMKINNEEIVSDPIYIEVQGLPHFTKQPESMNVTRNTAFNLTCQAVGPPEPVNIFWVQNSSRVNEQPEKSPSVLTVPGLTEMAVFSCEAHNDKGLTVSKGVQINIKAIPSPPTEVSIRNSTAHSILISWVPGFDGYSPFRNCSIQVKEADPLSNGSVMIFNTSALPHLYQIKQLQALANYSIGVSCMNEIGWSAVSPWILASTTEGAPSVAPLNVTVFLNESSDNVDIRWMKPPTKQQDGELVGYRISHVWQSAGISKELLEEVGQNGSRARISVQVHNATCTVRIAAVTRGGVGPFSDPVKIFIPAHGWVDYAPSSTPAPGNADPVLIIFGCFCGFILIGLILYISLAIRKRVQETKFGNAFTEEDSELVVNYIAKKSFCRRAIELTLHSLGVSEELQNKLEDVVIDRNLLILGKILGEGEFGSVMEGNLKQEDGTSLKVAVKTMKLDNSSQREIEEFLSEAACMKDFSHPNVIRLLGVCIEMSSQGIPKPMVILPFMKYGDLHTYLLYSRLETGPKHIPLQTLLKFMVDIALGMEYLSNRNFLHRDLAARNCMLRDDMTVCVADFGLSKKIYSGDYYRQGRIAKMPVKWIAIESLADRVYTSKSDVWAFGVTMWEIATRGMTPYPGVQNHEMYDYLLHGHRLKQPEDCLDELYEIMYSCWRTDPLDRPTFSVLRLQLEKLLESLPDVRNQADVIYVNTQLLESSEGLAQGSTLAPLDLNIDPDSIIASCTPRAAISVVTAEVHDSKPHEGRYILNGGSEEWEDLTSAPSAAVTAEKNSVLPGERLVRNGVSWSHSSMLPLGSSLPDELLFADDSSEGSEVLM

[6] = biological target: Phosphatidylinositol 4-phosphate 5-kinase type-1 gamma (Homo sapiens) (UniProt O60331); test: Selectivity interaction (KinomeScan (DiscoverX)) EUB0000045b PIP5K1C
Chain of Phosphatidylinositol 4-phosphate 5-kinase type-1 gamma (Homo sapiens) (O60331 whole entry): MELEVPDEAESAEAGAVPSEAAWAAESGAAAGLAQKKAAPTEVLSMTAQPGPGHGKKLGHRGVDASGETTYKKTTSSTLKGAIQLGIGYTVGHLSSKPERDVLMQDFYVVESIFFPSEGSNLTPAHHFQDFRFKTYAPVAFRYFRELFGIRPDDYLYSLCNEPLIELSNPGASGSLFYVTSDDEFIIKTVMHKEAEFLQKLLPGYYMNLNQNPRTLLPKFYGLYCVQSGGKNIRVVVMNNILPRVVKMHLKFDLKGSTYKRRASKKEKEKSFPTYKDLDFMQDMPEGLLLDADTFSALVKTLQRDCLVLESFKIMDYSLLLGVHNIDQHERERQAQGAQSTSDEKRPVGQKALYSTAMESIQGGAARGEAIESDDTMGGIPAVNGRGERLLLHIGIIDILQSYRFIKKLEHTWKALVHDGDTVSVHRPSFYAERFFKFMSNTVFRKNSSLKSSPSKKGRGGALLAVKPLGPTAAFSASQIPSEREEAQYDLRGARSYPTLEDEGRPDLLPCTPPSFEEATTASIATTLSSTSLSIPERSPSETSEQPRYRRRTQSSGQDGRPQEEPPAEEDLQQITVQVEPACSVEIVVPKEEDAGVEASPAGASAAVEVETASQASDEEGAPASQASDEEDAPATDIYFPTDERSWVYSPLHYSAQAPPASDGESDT

Chain of Muscarinic acetylcholine receptor M3 (P20309 whole entry, looked up): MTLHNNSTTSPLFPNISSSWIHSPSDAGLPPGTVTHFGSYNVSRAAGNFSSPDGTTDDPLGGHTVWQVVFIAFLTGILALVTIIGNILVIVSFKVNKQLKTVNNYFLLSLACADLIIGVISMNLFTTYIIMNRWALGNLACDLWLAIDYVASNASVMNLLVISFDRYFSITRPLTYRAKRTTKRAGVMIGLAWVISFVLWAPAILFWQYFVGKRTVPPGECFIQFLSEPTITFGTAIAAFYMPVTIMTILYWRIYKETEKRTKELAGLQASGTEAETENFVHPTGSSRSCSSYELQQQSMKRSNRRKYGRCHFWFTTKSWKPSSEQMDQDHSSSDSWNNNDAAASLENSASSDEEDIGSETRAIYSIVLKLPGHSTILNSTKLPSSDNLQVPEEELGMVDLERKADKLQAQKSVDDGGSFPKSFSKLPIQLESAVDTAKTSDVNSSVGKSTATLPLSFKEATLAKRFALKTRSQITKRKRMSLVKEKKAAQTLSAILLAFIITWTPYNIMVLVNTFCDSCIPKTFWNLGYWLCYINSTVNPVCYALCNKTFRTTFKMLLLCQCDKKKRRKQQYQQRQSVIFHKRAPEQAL
Chain of Protein kinase C delta type (Homo sapiens) (Q05655 whole entry, looked up): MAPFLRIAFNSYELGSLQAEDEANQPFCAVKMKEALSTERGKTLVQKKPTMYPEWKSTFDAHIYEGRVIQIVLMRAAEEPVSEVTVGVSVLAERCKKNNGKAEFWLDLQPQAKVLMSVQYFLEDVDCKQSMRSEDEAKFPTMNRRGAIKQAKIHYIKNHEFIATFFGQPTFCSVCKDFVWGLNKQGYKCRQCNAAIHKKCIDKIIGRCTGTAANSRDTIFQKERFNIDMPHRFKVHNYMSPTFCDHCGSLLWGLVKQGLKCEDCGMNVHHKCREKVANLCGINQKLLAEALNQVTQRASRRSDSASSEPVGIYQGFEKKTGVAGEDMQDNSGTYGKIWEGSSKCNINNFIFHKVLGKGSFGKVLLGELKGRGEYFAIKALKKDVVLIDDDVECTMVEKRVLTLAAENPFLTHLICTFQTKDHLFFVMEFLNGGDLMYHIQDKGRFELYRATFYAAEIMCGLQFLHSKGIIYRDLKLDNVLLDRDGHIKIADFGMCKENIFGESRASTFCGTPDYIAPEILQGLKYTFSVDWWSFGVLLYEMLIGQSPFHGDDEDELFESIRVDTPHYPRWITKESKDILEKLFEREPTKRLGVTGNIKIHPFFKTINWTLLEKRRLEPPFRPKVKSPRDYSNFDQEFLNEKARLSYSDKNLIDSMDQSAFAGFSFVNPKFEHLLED

COc1cc(N(C)c2ccnc3ccc(C(F)(F)F)cc23)cc(OC)c1OC
% binding [1]: 95%

Nc1cnc(N2CCc3cc(S(=O)(=O)Nc4c(F)cc(Cl)cc4F)cc(N4CCCC4=O)c32)nc1 [TP-020n]
% of inhibition [2]: -18%
% of control [3]: 100%

Cc1cc([C@@H](C)Nc2ccccc2C(=O)O)c2nc(N3CCOCC3)cc(=O)n2c1 [AZD-6482]
% of control [4]: 85%

CNC(=O)Nc1ccc(-c2nc(N3CC4CCC(C3)O4)c3cnn(C4CCC5(CC4)OCCO5)c3n2)cc1
% of inhibition [5]: 1%

C=CC(=O)Nc1cc(-n2c(=O)ccc3cnc4ccc(-c5ccc(NS(C)(=O)=O)cc5)cc4c32)ccc1C
% of control ([6]; at 1 µM): 89%
% of control ([6]; at 10 µM): 29%
